The nature of series [1]: In vitro lymphatic uptake model (Franz cell, Intralipid receiver, octanol-impregnated PVDF membrane). As to conditions: 37 °C, 0–4 h, rank among the four tested drugs. The method, then:
The Franz Cell receiver compartment was filled with 12 mL of either Intralipid® or Intralipid® mixed with a potential inhibitor or enhancer and maintained at 37.0 ± 0.5 °C with magnetic stirring at 600 rpm, as shown in Figure 2. A synthetic 0.22 µm Polyvinylidene Fluoride (PVDF) membrane impregnated with octanol was placed between compartments. […] Two mL solutions of the model drugs were added to the donor compartment with the receiver compartment containing either Intralipid® or Intralipid® mixed with an enhancer or an inhibitor. At different time intervals (0–4 h), 0.2 mL samples were withdrawn, extracted, and analyzed for drug content using HPLC with a C18 column (150 mm × 4.6 mm i.d., 5 µm).
Therefore, this in vitro model was developed to replicate this in vivo process. Since certain lipophilic drugs are taken up from the intestinal lumen into enterocytes and subsequently enclosed within chylomicrons, the developed model was designed to include a donor compartment, resembling the intestinal lumen, where the drug solution is placed. Additionally, there was a receiver compartment that contains an artificial chylomicron medium, simulating the environment within enterocytes. These two compartments were separated by an octanol-immersed membrane, which served as a representation of the lipophilic cell membrane found in enterocytes (Figure 2).

The conditions of series [2]: cited from earlier work; for Density: ref ChemBK **, ChemSpider ***, # drugfuture.com, ## chemsrc.com; for PSA (polar surface area): ref DrugBank, in Å2 (unit assumed).
On the set-up of series [3]: method as in PMID 32785853. Conditions: Sprague-Dawley rats, cited from earlier work.
Details of series [4]: method as in PMID 32785853, PMID 29109461. Conditions: cited from earlier work.
The conditions of series [5]: lipidic vehicles, lymph-cannulated rats; cited from earlier work.
The conditions of series [6]: long-chain triglyceride formulation; cited from earlier work.
On the set-up of series [7]: method as in PMID 23200408. As to conditions: intraduodenal, thoracic duct-cannulated rats; cited from earlier work.
On the set-up of series [8]: method as in PMID 19916501. Conditions: 30 mg/kg intraduodenal, mesenteric-cannulated rat; cited from earlier work.
For series [9] the following is noted: oral; cited from earlier work.

Like-named read-outs stand apart in the source and are kept apart here. Marks after values point to notes of the source that are not given here.

In general, LogP refers to a log measure of how a compound divides between an organic and an aqueous phase. Regarding `C=C(C)[C@@H]1CCC(C)=C[C@H]1c1c(O)cc(CCCCC)cc1O` [Cannabidiol, cannabidiol], the “lymphatic uptake (release into the receiver compartment)” value (shortened to “lymphatic uptake”) in series [1] is listed as “moderate efficiency”. Further, in series [2], the Density is given as 1.04 ^# g/cm^3 and the “PSA (polar surface area)” value is on record as 40.46 *. In addition, in series [2] (ref PubChem (* DrugBank)), the “HBA (hydrogen-binding acceptors)” value is recorded as 2 *, the “HBD (hydrogen binding donors)” value is 2 * and the LogP is 6.3 *. The “increase in systemic exposure with lipids versus lipid-free formulations” value in series [3] is recorded as “factor of three”. Also, the “increase in systemic exposure with lipids versus lipid-free formulations” value in [3] (listed as CBD) was “three-fold increase”. In series [4], the “increase in plasma concentration with sesame oil” value is 250 fold and the “increase in systemic exposure with sesame oil” value is on record as 2.8 fold.

One may read the pKa as the pH at which an ionisable group is half protonated. Regarding `CCCCN(CCCC)CCC(O)c1cc2c(Cl)cc(Cl)cc2c2cc(C(F)(F)F)ccc12` (stereo not drawn) [Halofantrine], in series [2], the Density is recorded as 1.2 *** g/cm^3 and the “PSA (polar surface area)” value was 23.5 *. Further, in series [2] (ref PubChem (* DrugBank)), the “HBA (hydrogen-binding acceptors)” value was 5, the “HBD (hydrogen binding donors)” value is listed as 1, the LogP is 8.9 and the pKa is listed as 14.47. Also, in series [5], the total systemic exposure is listed as 22.7 % of the administered dose. Also, the total bioavailability in series [6] is on record as 19.1%.

`O=c1c(O)c(-c2ccc(O)c(O)c2)oc2cc(O)cc(O)c12` [Quercetin, quercetin]: the “lymphatic uptake” value in series [1] is reported as “moderate efficiency”. For the same molecule, in [2], the Density is reported as 1.8 ^## g/cm^3 and the “PSA (polar surface area)” value is 127.45 *. Also, in series [2] (ref PubChem (* DrugBank)), the “HBA (hydrogen-binding acceptors)” value is recorded as 7, the “HBD (hydrogen binding donors)” value is given as 5 and the LogP is 1.48. The “transport through the lymphatic system with soybean oil” value in series [7] was “notably improved”. In addition, the “Cmax in the lymph relative to plasma” value in series [8] is “approximately five times higher”.

Take `CO[C@H]1/C=C/O[C@@]2(C)Oc3c(C)c(O)c4c(O)c(c(/C=N/N5CCN(C)CC5)c(O)c4c3C2=O)NC(=O)/C(C)=C\C=C\[C@H](C)[C@H](O)[C@@H](C)[C@@H](O)[C@@H](C)[C@H](OC(C)=O)[C@@H]1C` [Rifampicin, rifampicin]: the “lymphatic uptake” value in series [1] is “least available”. In series [2], the Density was 1.178 ** g/cm^3 and the “PSA (polar surface area)” value was 220.15 *. Further, in series [2] (ref PubChem (* DrugBank)), the “HBA (hydrogen-binding acceptors)” value is on record as 15, the “HBD (hydrogen binding donors)” value is listed as 6 and the LogP is 4.9.

In the case of `CCCCCCCCCCC(=O)O[C@H]1CC[C@H]2[C@@H]3CCC4=CC(=O)CC[C@]4(C)[C@H]3CC[C@]12C` [testosterone undecanoate], the “systemic exposure compared to testosterone administration” value in series [9] is recorded as “higher systemic exposure”.

The values above are taken from paper PMC10674476, “Development of a Novel In Vitro Model to Study Lymphatic Uptake of Drugs via Artificial Chylomicrons” (Pharmaceutics, 2023).
